Data from US20100216827A1 (Metabolex, Inc., priority 2008, published 2010).
Like-named read-outs stand apart in the source and are kept apart here.

Target: T1, human GPR120 (Homo sapiens, UniProt Q5NUL3)
T1 construct: host or cells: HEK293 cells coexpressing Gqi5
T1 sequence (Q5NUL3 1-361): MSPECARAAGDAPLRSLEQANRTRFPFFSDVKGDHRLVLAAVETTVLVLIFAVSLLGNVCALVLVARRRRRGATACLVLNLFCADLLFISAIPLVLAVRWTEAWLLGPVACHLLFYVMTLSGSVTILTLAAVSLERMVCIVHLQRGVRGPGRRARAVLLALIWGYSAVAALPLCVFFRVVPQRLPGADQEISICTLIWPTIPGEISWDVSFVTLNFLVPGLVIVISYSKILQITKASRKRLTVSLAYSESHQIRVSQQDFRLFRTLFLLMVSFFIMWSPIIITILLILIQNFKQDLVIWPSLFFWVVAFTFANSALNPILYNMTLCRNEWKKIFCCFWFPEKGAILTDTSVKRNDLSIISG
Assay: Intracellular Ca2+ (FLIPR Calcium 4, Flexstation) assay in human GPR120 stable HEK293 cell line coexpressing Gqi5
Format: cell-based
Conditions: for % Activity at 5 μM: 5 μM compound compared to the maximal activity of GW9508 at 6.7 μM (100%); for EC50: human GPR120 stably expressing cells, 8 concentrations 0.00001 to 20 μM
Protocol: Human GPR120 stable cell line was purchased from Multispan Inc (26219 Eden Landing Road, Hayward, Calif. 94545). This GPR120 cell line was generated in HEK293 cells coexpressing Gqi5. In this cell line, the Flag epitope tag (DYKDDDDK) was fused to the amino terminus of human GPR120 protein.
The concentration of intracellular Ca^2+ was measured as described below. Human GPR120 cells were plated in 96 well plates (Poly-D-Lysine coated black/clear Plate, Greiner Bio-One) at 70,000 cells per well and cultured overnight in conditions of 37° C. and 5% CO2. A Ca^2+ assay dye stock solution was prepared by adding 10 mL of assay buffer (HBSS/20 mM HEPES, pH 7.4) to FLIPR Calcium 4 Assay Bulk Kit (Molecular Devices). The 10 mL of Ca^2+ assay dye solution was prepared by further diluting 0.5 mL of Ca^2+ assay dye stock solution with 10 mL of assay buffer. The medium of the cells was removed and immediately 100 μl of the Ca^2+ assay dye solution was dispensed into each well followed by incubation at 37° C. and 5% CO2 for 50 minutes to incorporate the Ca^2+ dye into the cells. The cell plate was then placed in the Flexstation (Molecular Devices) for 20 minutes at 37° C. Compounds were dissolved in 100% DMSO and diluted to desired concentrations with assay buffer and placed in Flexstation simultaneously with the cell plate for 20 minute incubation at 37° C. prior to reading. Fluorescence intensity was measured immediately following compound addition (25 μl/well) on the Flexstation at an excitation wavelength of 485 nm and an emission wavelength of 525 with 515 nm auto cutoff. The resulting increase in fluorescence intensities corresponds to increases in intracellular Ca^2+ levels.
Compounds were dissolved in 100% DMSO to a concentration of 20 mM to provide stock solutions. To determine activity against human GPR120, compounds were added with human GPR120 stably expressing cells (described above), at 8 desired concentrations ranging from 0.00001 to 20 μM, in 96 well plates and fluorescence intensities were measured for 90 seconds with 2-second intervals. An EC50 value (concentration of the GPR120 agonist where 50% of the agonist's maximal activity is observed) was calculated using the changes (Max-Min) of fluorescent intensity.
To determine percent activity for a tested compound, the fluorescence intensity value obtained at a particular concentration were compared to the maximal fluorescence intensity value obtained for reference compound GW9508 (4-[[(3-phenoxyphenyl)methyl]amino]benzene propanoic acid; British Journal of Pharmacology 2006 148, 619-628) that acts as a full agonist of the GPR120 receptor. The maximal activity of GW9508 is designated as 100% activity. Typically, the GW9508 activity reached a maximum at a concentration of approximately 6.7 μM. Activities of compounds that were tested according to this method are shown in Table 1 below and are expressed as % activity at 5 μM compound compared to the maximal activity of GW9508 at 6.7 μM.

[1] = read-out: EC50 between >1 μM and ≦10 μM

Row | Structure (SMILES) | % Activity at 5 μM [%] | EC50 (read-out: EC50 ≦ 1 μM) [nM] | EC50 [1] [nM]
1 | CC(C)c1cc(COc2c(F)cc(CCC(=O)O)cc2F)n(-c2ccccc2)n1 [Example 1, 3-(3,5-difluoro-4-((3-isopropyl-1-phenyl-1H-pyrazol-5-yl)methoxy)phenyl)propanoic acid] | 79 | ≤ 1000 | –
2 | O=C(O)CCc1cc(F)c(OCc2snnc2-c2ccccc2)c(F)c1 [Example 2] | 77 | ≤ 1000 | –
3 | O=C(O)CCc1cc(F)c(OCc2cncn2-c2ccccc2)c(F)c1 [Example 3, 3-(3,5-difluoro-4-((1-phenyl-1H-imidazol-5-yl)methoxy)phenyl)propanoic acid] | 70 | – | 1000 to 10000
4 | O=C(O)CCc1cc(F)c(OCc2cnnn2-c2ccccc2)c(F)c1 [Example 5, 3-(3,5-difluoro-4-((1-phenyl-1H-1,2,3-triazol-5-yl)methoxy)phenyl)propanoic acid] | 64 | – | 1000 to 10000
5 | O=C(O)CCc1cc(F)c(OCc2ncoc2-c2ccccc2)c(F)c1 [Example 10, 3-(3,5-difluoro-4-((5-phenyloxazol-4-yl)methoxy)phenyl)propanoic acid] | 60 | ≤ 1000 | –
6 | O=C(O)CCc1cc(F)c(OCc2nccn2Cc2ccccc2)c(F)c1 [Example 11, 3-(4-((1-benzyl-1H-imidazol-2-yl)methoxy)-3,5-difluorophenyl)propanoic acid] | 75 | – | 1000 to 10000
7 | Cc1cc(COc2c(F)cc(CCC(=O)O)cc2F)c(-c2ccccc2)o1 [Example 12, 3-(3,5-difluoro-4-((5-methyl-2-phenylfuran-3-yl)methoxy)phenyl)propanoic acid] | 70 | – | 1000 to 10000
8 | Cn1ncc(COc2c(F)cc(CCC(=O)O)cc2F)c1-c1ccccc1 [Example 13, 3-(3,5-difluoro-4-((1-methyl-5-phenyl-1H-pyrazol-4-yl)methoxy)phenyl)propanoic acid] | 73 | – | 1000 to 10000
9 | Cc1onc(-c2ccccc2)c1COc1c(F)cc(CCC(=O)O)cc1F [Example 14, 3-(3,5-difluoro-4-((5-methyl-3-phenylisoxazol-4-yl)methoxy)phenyl)propanoic acid] | 66 | ≤ 1000 | –
10 | Cc1noc(-c2ccccc2)c1COc1c(F)cc(CCC(=O)O)cc1F [Example 15, 3-(3,5-difluoro-4-((3-methyl-5-phenylisoxazol-4-yl)methoxy)phenyl)propanoic acid] | 72 | ≤ 1000 | –
11 | Cc1onc(-c2ccccc2)c1COc1c(F)cc(C2CC2C(=O)O)cc1F (centres unmarked) [Example 16, 2-(3,5-difluoro-4-((5-methyl-3-phenylisoxazol-4-yl)methoxy)phenyl)cyclopropanecarboxylic acid] | 60 | ≤ 1000 | –
12 | Cc1onc(-c2ccc(F)cc2)c1COc1c(F)cc(C2CC2C(=O)O)cc1F (centres unmarked) [Example 17, 2-(3,5-difluoro-4-((3-(4-fluorophenyl)-5-methylisoxazol-4-yl)methoxy)phenyl)cyclopropanecarboxylic acid] | 78 | – | 1000 to 10000
13 | Cc1onc(-c2ccc(F)cc2)c1COc1c(F)cc(CCC(=O)O)cc1F [Example 18, 3-(3,5-difluoro-4-((3-(4-fluorophenyl)-5-methylisoxazol-4-yl)methoxy)phenyl)propanoic acid] | 77 | ≤ 1000 | –
14 | Cc1cc(-c2onc(C)c2COc2c(F)cc(CCC(=O)O)cc2F)no1 [Example 19, 3-(4-((3′,5-dimethyl-3,5′-biisoxazol-4′-yl)methoxy)-3,5-difluorophenyl)propanoic acid] | 69 | ≤ 1000 | –
15 | O=C(O)CCc1cc(F)c(OCc2sccc2-n2cccc2)c(F)c1 [Example 20, 3-(4-((3-(1H-pyrrol-1-yl)thiophen-2-yl)methoxy)-3,5-difluorophenyl)propanoic acid] | 88 | ≤ 1000 | –
16 | COc1ccc(-c2noc(C)c2COc2c(F)cc(CCC(=O)O)cc2F)cc1 [Example 21, 3-(3,5-difluoro-4-((3-(4-methoxyphenyl)-5-methylisoxazol-4-yl)methoxy)phenyl)propanoic acid] | 97 | ≤ 1000 | –
17 | Cc1onc(-c2c(Cl)cccc2Cl)c1COc1c(F)cc(CCC(=O)O)cc1F [Example 22, 3-(4-((3-(2,6-dichlorophenyl)-5-methylisoxazol-4-yl)methoxy)-3,5-difluorophenyl)propanoic acid] | 75 | – | 1000 to 10000
18 | Cc1noc(C)c1COc1c(F)cc(CCC(=O)O)cc1F [Example 23, 3-(4-((3,5-dimethylisoxazol-4-yl)methoxy)-3,5-difluorophenyl)propanoic acid] | 63 | – | 1000 to 10000
19 | Cc1onc(-c2ccc(Cl)cc2)c1COc1c(F)cc(CCC(=O)O)cc1F [Example 24, 3-(4-((3-(4-chlorophenyl)-5-methylisoxazol-4-yl)methoxy)-3,5-difluorophenyl)propanoic acid] | 92 | ≤ 1000 | –
20 | Cc1cc(COc2c(F)cc(CCC(=O)O)cc2F)n(C(C)C)n1 [Example 25, 3-(3,5-difluoro-4-((1-isopropyl-3-methyl-1H-pyrazol-5-yl)methoxy)phenyl)propanoic acid] | 92 | – | 1000 to 10000
21 | Cc1onc(-c2ccccc2)c1C(=O)COc1c(F)cc(CCC(=O)O)cc1F [Example 26, 3-(3,5-difluoro-4-(2-(5-methyl-3-phenylisoxazol-4-yl)-2-oxoethoxy)phenyl)propanoic acid] | 100 | ≤ 1000 | –
22 | O=C(O)CCc1cc(F)c(OCc2ncsc2-c2ccccc2)c(F)c1 [Example 28, 3-(3,5-difluoro-4-((5-phenylthiazol-4-yl)methoxy)phenyl)propanoic acid] | 87 | ≤ 1000 | –
23 | O=C(O)CSc1ccc(OCc2snnc2-c2ccccc2)cc1 [Example 29, 2-(4-((4-phenyl-1,2,3-thiadiazol-5-yl)methoxy)phenylthio)acetic acid] | 85 | – | 1000 to 10000
24 | Cc1nc(-c2ccccc2)c(COc2c(F)cc(CCC(=O)O)cc2F)s1 [Example 30] | 80 | – | 1000 to 10000
25 | O=C(O)CCc1cc(F)c(OCc2snnc2-c2ccc(F)cc2)c(F)c1 [Example 31, 3-(3,5-difluoro-4-((4-(4-fluorophenyl)-1,2,3-thiadiazol-5-yl)methoxy)phenyl)propanoic acid] | 85 | ≤ 1000 | –
26 | O=C(O)CCc1cc(F)c(OCc2snnc2-c2cccc(Cl)c2)c(F)c1 [Example 32, 3-(4-((4-(3-chlorophenyl)-1,2,3-thiadiazol-5-yl)methoxy)-3,5-difluorophenyl)propanoic acid] | 85 | ≤ 1000 | –
27 | Cc1nc(-c2ccccc2)c(COc2c(F)cc(C3CC3C(=O)O)cc2F)s1 (centres unmarked) [Example 33, 2-(3,5-difluoro-4-((2-methyl-4-phenylthiazol-5-yl)methoxy)phenyl)cyclopropane carboxylic acid] | 80 | ≤ 1000 | –
28 | Cc1onc(-c2ccccc2)c1COc1c(F)cc(COCC(=O)O)cc1F [Example 34, 2-(3,5-difluoro-4-((5-methyl-3-phenylisoxazol-4-yl)methoxy)benzyloxy)acetic acid] | 74 | – | 1000 to 10000
